Among the data in ChEMBL document CHEMBL1156294, “Novel inhibitors of basal glucose transport as potential anticancer agents” (2010) are inhibition and inhibition of growth values, retold here.

Common to all, as to assay type: functional
One test has as its system NCI-H1299. Kind of test: Inhibition of basal glucose transport in human H1299 cells assessed as inhibition of [3H]2-deoxyglucose uptake at 30 uM after 30 mins by scintillation counting relative to control.
The next test deals with MCF7. In words: Inhibition of basal glucose transport in human MCF7 cells assessed as inhibition of [3H]2-deoxyglucose uptake at 30 uM after 30 mins by scintillation counting.
In the next test the test system is RKO. In words: Inhibition of basal glucose transport in human RKO cells assessed as inhibition of [3H]2-deoxyglucose uptake at 30 uM after 30 mins by scintillation counting.
The nature of test [1]: Cytotoxicity against human H1299 cells at 30 uM after 48 hrs by MTT assay relative to control. The conditions noted are these: NCI-H1299, 48 h, read-out: GI. A general note: Tetrazolium assays rely on reduction of a dye to a coloured formazan, in cell work by metabolically active cells.
The subject of another test is HeLa. In words: Inhibition of basal glucose transport in human HeLa cells assessed as inhibition of [3H]2-deoxyglucose uptake at 30 uM after 30 mins by scintillation counting.

For orientation: inhibition means the change of the read-out against control, counted positive when it falls. Consider `COc1cccc(OC(=O)c2cc(O)c(O)c(O)c2)c1OC(=O)c1cc(O)c(O)c(O)c1`, for which the inhibition at 30 µM is 58.4% in the test on NCI-H1299, 33% in the test with MCF7, 57.2% in the test on RKO and 46.3% in the test with HeLa. Also, the inhibition of growth at 30 µM in test [1] was determined as 36%. In the case of `O=C(Oc1ccc(Cl)cc1OC(=O)c1cc(O)c(O)c(O)c1)c1cc(O)c(O)c(O)c1`, in the test on NCI-H1299, the inhibition at 30 µM was 84.4%. Consider `O=C(Oc1ccccc1OC(=O)c1ccc(O)cc1)c1ccc(O)cc1`, for which the inhibition at 30 µM in the test with NCI-H1299 worked out at 57.5%. Take `O=C(Oc1cccc(OC(=O)c2cccc(O)c2)c1OC(=O)c1cccc(O)c1)c1cccc(O)c1`: the inhibition at 30 µM in the test with NCI-H1299 is 99.7%. Moreover, in test [1], the inhibition of growth at 30 µM stood at 59.3%.

In the case of `COc1cccc(OC(=O)c2cccc(O)c2)c1OC(=O)c1cccc(O)c1`, the inhibition at 30 µM in the test with NCI-H1299 was 79%. Turning to `O=C(Oc1ccc(Cl)cc1OC(=O)c1ccccc1O)c1ccccc1O`, the inhibition at 30 µM in the test on NCI-H1299 was found to be 51.6%. Moreover, the inhibition of growth at 30 µM in test [1] was found to be 26.6%. The like results for `O=C(Oc1ccc(Cl)cc1OC(=O)c1cccc(O)c1)c1cccc(O)c1` were, in that order, 93.1% and 44.5%. For the compound `COc1cccc(OC(=O)c2cc(O)cc(O)c2)c1OC(=O)c1cc(O)cc(O)c1`, in the test on NCI-H1299, the inhibition at 30 µM was found to be 69.4%. In the case of `O=C(Oc1cccc(F)c1OC(=O)c1ccccc1O)c1ccccc1O`, the inhibition at 30 µM in the test on NCI-H1299 worked out at 51%.

For `O=C(Oc1cccc(OC(=O)c2ccc(O)cc2)c1OC(=O)c1ccc(O)cc1)c1ccc(O)cc1`, the inhibition at 30 µM with NCI-H1299 was 88.7%. Further, the inhibition of growth at 30 µM in test [1] worked out at 34.8%.

For `O=C(Oc1cccc(OC(=O)c2ccc(O)c(O)c2)c1OC(=O)c1ccc(O)c(O)c1)c1ccc(O)c(O)c1`, the inhibition at 30 µM in the test with NCI-H1299 amounted to 94.7%. In addition, in test [1], the inhibition of growth at 30 µM amounted to 42.2%.

On to `COc1cccc(OC(=O)c2ccc(O)c(O)c2)c1OC(=O)c1ccc(O)c(O)c1`, for which, in the test on NCI-H1299, the inhibition at 30 µM was 0%. For the same compound, the inhibition of growth at 30 µM in test [1] is 32.4%.

As to `O=C(Oc1cccc(F)c1OC(=O)c1cc(O)c(O)c(O)c1)c1cc(O)c(O)c(O)c1`, the inhibition at 30 µM in the test on NCI-H1299 stood at 81.1%. Regarding `O=C(Oc1ccccc1OC(=O)c1cc(O)c(O)c(O)c1)c1cc(O)c(O)c(O)c1`, the inhibition at 30 µM in the test with NCI-H1299 was determined as 32.1%. `COc1cc(C(=O)Oc2cccc(OC)c2OC(=O)c2cc(OC)c(OC)c(OC)c2)cc(OC)c1OC`: the inhibition at 30 µM in the test with NCI-H1299 was determined as 33.3%. The inhibition of growth at 30 µM in test [1] came out at 22.2%. Take `COc1cc(C(=O)Oc2ccc(Cl)cc2OC(=O)c2cc(OC)c(OC)c(OC)c2)cc(OC)c1OC`: the inhibition at 30 µM in the test with NCI-H1299 stood at 1.7%. In addition, the inhibition of growth at 30 µM in test [1] is 20.6%.

Turning to `COc1cc(C(=O)Oc2cccc(F)c2OC(=O)c2cc(OC)c(OC)c(OC)c2)cc(OC)c1OC`, the inhibition at 30 µM in the test with NCI-H1299 was found to be 7.9%. For the same compound, the inhibition of growth at 30 µM in test [1] was found to be 19.6%.

As for `O=C(Oc1cccc(F)c1OC(=O)c1ccc(O)cc1)c1ccc(O)cc1`, the inhibition at 30 µM with NCI-H1299 stood at 92.6%. Moreover, in test [1], the inhibition of growth at 30 µM is 35.9%.

On to `COc1cccc(C(=O)Oc2cccc(OC(=O)c3cccc(OC)c3)c2OC(=O)c2cccc(OC)c2)c1`, for which the inhibition at 30 µM in the test with NCI-H1299 worked out at 66.2%. Consider `COc1cccc(C(=O)Oc2cccc(OC)c2OC(=O)c2cccc(OC)c2)c1`, for which the inhibition at 30 µM in the test with NCI-H1299 stood at 32.1%. Moreover, the inhibition of growth at 30 µM in test [1] was 18.3%. As for `O=C(Oc1cccc(OC(=O)c2cc(O)cc(O)c2)c1OC(=O)c1cc(O)cc(O)c1)c1cc(O)cc(O)c1`, the inhibition at 30 µM in the test with NCI-H1299 was determined as 98.7%. The inhibition of growth at 30 µM in test [1] came out at 41%. Consider `O=C(Oc1ccc(Cl)cc1OC(=O)c1cc(O)cc(O)c1)c1cc(O)cc(O)c1`, for which, in the test on NCI-H1299, the inhibition at 30 µM was determined as 95.2%. The inhibition of growth at 30 µM in test [1] is 38.8%. For `O=C(Oc1cccc(F)c1OC(=O)c1cc(O)cc(O)c1)c1cc(O)cc(O)c1`, the inhibition at 30 µM in the test on NCI-H1299 was determined as 94%. For the same compound, the inhibition of growth at 30 µM in test [1] turned out to be 35%. Regarding `O=C(Oc1cccc(OC(=O)c2cc(O)c(O)c(O)c2)c1OC(=O)c1cc(O)c(O)c(O)c1)c1cc(O)c(O)c(O)c1`, the inhibition at 30 µM in the test on NCI-H1299 was found to be 86.1%; with MCF7, 60.4%; in the test on RKO it was 58.1%; with HeLa it was 36%. Moreover, the inhibition of growth at 30 µM in test [1] is 39.9%.

Consider `COc1cc(C(=O)Oc2cccc(OC(=O)c3cc(OC)c(OC)c(OC)c3)c2OC(=O)c2cc(OC)c(OC)c(OC)c2)cc(OC)c1OC`, for which, in the test on NCI-H1299, the inhibition at 30 µM amounted to 41.1%. Turning to `O=C(Oc1ccc(Cl)cc1OC(=O)c1ccc(O)c(O)c1)c1ccc(O)c(O)c1`, in the test on NCI-H1299, the inhibition at 30 µM is 94.4%. Moreover, in test [1], the inhibition of growth at 30 µM came out at 45.2%. On to `O=C(Oc1cccc(F)c1OC(=O)c1ccc(O)c(O)c1)c1ccc(O)c(O)c1`, for which, in the test with NCI-H1299, the inhibition at 30 µM is 88.7%. The inhibition of growth at 30 µM in test [1] was determined as 41.5%. On to `COc1cccc(OC)c1C(=O)Oc1cccc(OC(=O)c2c(OC)cccc2OC)c1OC(=O)c1c(OC)cccc1OC`, for which, in the test with NCI-H1299, the inhibition at 30 µM turned out to be 75.8%. Consider `COc1ccc(C(=O)Oc2cccc(OC(=O)c3ccc(OC)c(OC)c3)c2OC(=O)c2ccc(OC)c(OC)c2)cc1OC`, for which the inhibition at 30 µM in the test with NCI-H1299 was found to be 0%. Further, the inhibition of growth at 30 µM in test [1] stood at 10%. In the case of `O=C(Oc1cccc(OC(=O)c2ccccc2O)c1OC(=O)c1ccccc1O)c1ccccc1O`, the inhibition at 30 µM with NCI-H1299 came to 74.7%. Regarding `COc1cccc(OC(=O)c2ccccc2O)c1OC(=O)c1ccccc1O`, the inhibition at 30 µM with NCI-H1299 amounted to 50.5%. Further, in test [1], the inhibition of growth at 30 µM is 18%. `COc1cccc(OC(=O)c2ccc(O)cc2)c1OC(=O)c1ccc(O)cc1`: in the test with NCI-H1299, the inhibition at 30 µM was determined as 86.5%. In test [1], the inhibition of growth at 30 µM is 36.6%. On to `O=C(Oc1ccc(Cl)cc1OC(=O)c1ccc(O)cc1)c1ccc(O)cc1`, for which the inhibition at 30 µM in the test with NCI-H1299 was 79%.
